The test concerns people at high risk for vascular disease with either IFG, IGT, or early type 2 diabetes. In words: ORIGIN trial: blood triglyceride and cholesterol change. The class given is in vivo, human. The note with it: glargine group.

Take “(Gly A21) Arg (B31) Arg (B32) human insulin [insulin glargine]”: the “change of triglyceride concentration in the blood” value (P<0.001 vs standard care) is listed as −0.21 (0.03). For the same substance, for the setting “p 0.044 vs standard care”, the “Total cholesterol change from baseline to end-of-study” value is -0.41 mmol/L.

(Values after patent US20150065421A1, “BASAL INSULIN THERAPY” (SANOFI, priority 2012, published 2015).)
